Results as given in patent EP4810040A2, “INHIBITORS OF APOL1 AND METHODS OF USING SAME” (priority 2020, dated 2022).
Read-outs that look alike come from different tables or passages of the source.

Target: T1, APOL1 G1 (Homo sapiens, UniProt O14791, I384M/S342G)
T1 sequence (O14791 28-398 S342G/I384M): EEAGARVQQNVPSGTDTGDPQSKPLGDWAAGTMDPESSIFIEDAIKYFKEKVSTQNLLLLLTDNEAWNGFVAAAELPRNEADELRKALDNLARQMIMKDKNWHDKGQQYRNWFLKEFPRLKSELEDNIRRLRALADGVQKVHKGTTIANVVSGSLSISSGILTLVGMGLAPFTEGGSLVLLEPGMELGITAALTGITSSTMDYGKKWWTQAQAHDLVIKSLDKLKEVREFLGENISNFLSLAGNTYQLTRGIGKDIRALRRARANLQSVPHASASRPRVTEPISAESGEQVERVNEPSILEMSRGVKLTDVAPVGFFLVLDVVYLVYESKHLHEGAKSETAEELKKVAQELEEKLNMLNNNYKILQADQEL
Assay: MultiTox-Fluor Multiplex Cytotoxicity Assay, tet-inducible APOL1 G1 T-REx-HEK293 cells
Type: cell-based
Design: expressed in transfected cells; host or cells: T-REx HEK293, clone G1 DC3.25 (pAAVS1-Puro-APOL1 G1)
Settings: for IC90: read-out: Multi-Tox Assay IC90; for Emax: read-out: Multi-Tox Assay Max Activity (%)
Summary of the method: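 Over 24 h at 37 °C, compounds (10-point 3-fold series from 10 µM, duplicate) were co-incubated with 50 ng/mL tetracycline inducing APOL1 G1 in T-REx-HEK293 cells. Viability/cytotoxicity measured by MultiTox-Fluor as dead-to-live fluorescence ratio, expressed as percent of control between uninduced and induced wells and fitted.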

[1] = HEK293, Multi-Tox Assay, APOL1 variant (G0/G1/G2) of the HEK293 cells not given
[2] = Multi-Tox Assay, APOL1 variant not given

| Compound | IC90 [1] [nM] | Emax [2] [%] | Multi-Tox Assay Max Activity (%) [2] [%] | IC90 (Multi-Tox Assay, APOL1 variant (G0/G1/G2) not stated in Table 46) [nM] | Multi-Tox Assay Max Activity (%) (Multi-Tox Assay, APOL1 variant not stated in Table 46) |
| --- | --- | --- | --- | --- | --- |
| C[C@H]1C[C@@]2(C[C@@H](c3ccon3)N1)OCCc1cc(Cl)sc12 (racemic) [Compound 96] | < 50 | 99.8 | – | – | – |
| CCc1cc2c(s1)CCO[C@@]21C[C@@H](c2cnn(CCS(C)(=O)=O)c2)N[C@@H](C)C1 [Compound 5] | 50 to 500 | – | 100.0 | – | – |
| C[C@H]1C[C@@]2(C[C@@H](c3cn(CCOc4ccccc4F)nn3)N1)OCC(F)(F)c1cc(Cl)sc12 [Compound 354] | 50 to 500 | – | – | – | – |
| C[C@H]1C[C@@]2(C[C@@H](c3cnc(-c4cnn(C)c4)nc3)N1)OCCc1cc(Cl)sc12 [Compound 61] | < 50 | 99.7 | – | – | – |
| C[C@H]1C[C@@]2(C[C@@H](c3cn(C)nn3)N1)OCC(O)(C(F)F)c1cc(Cl)sc12 (single isomer, unassigned) [Compound 184] | 50 to 500 | 99.3 | – | – | – |
| COCCn1cc([C@@H]2C[C@]3(C[C@H](C)N2)OC[C@@H](O)c2cc(Cl)sc23)nn1 [Compound 282] | 50 to 500 | – | – | – | – |
| C[C@H]1C[C@@]2(C[C@@H](c3cn(CC(O)c4ccccc4)nn3)N1)OCC(F)(F)c1cc(Cl)sc12 (stereo partly shown) [Compound 322] | 50 to 500 | – | 97.0 | – | – |
| CC(C)c1c[nH]c([C@@H]2C[C@]3(C[C@H](C)N2)OCCc2cc(Cl)sc23)n1 (racemic) [Compound 162] | > 500 | – | 92.0 | – | – |
| CCc1c[nH]c([C@@H]2C[C@]3(C[C@H](C)N2)OCCc2cc(Cl)sc23)n1 (racemic) [Compound 153] | > 500 | – | 96.0 | – | – |
| Cc1nn(C)cc1[C@@H]1C[C@]2(C[C@H](C)N1)OCCc1cc(Cl)sc12 (racemic) [Compound 142] | 50 to 500 | – | – | – | – |
| C[C@H]1C[C@@]2(C[C@@H](c3cocn3)N1)OCCc1cc(Cl)sc12 (racemic) [Compound 79] | 50 to 500 | 99.7 | – | – | – |
| CCC(O)Cn1cc([C@@H]2C[C@]3(C[C@H](C)N2)OCC(F)(F)c2cc(Cl)sc23)nn1 (stereo partly shown) [Compound 325] | 50 to 500 | – | 98.0 | – | – |
| Cc1nccc([C@@H]2C[C@]3(C[C@H](C)N2)OCCc2cc(Cl)sc23)n1 (racemic) [Compound 116] | 50 to 500 | – | 99.4 | – | – |
| Cc1noc2cc([C@@H]3C[C@]4(C[C@H](C)N3)OCCc3cc(Cl)sc34)ccc12 (racemic) [Compound 25] | < 50 | – | 100.0 | – | – |
| CCc1cc2c(s1)C1(C[C@@H](C)N[C@@H](C)C1)OCC2 (single isomer, unassigned) [Compound 199] | 50 to 500 | 99.3 | – | – | – |
| COC(=O)C1([C@@H]2C[C@]3(C[C@H](C)N2)OCCc2cc(Cl)sc23)CC1 [Compound 372, methyl 1-[(2'S,6'S,7S)-2-chloro-6'-methyl-spiro[4,5-dihydrothieno[2,3-c]pyran-7,4'-piperidine]-2'-yl]cyclopropanecarboxylate] | – | – | – | > 500 | 92.0 |
| C[C@H]1C[C@@]2(C[C@@H](c3cn(CC4(CO)CC4)nn3)N1)OC[C@@H](O)c1cc(Cl)sc12 [Compound 242] | 50 to 500 | – | 97.0 | – | – |
| Cc1nc2c([C@@H]3C[C@]4(C[C@H](C)N3)OCCc3cc(Cl)sc34)cccc2o1 (racemic) [Compound 170] | > 500 | – | 89.7 | – | – |
| C[C@H]1C[C@@]2(C[C@@H](c3cccc(NS(C)(=O)=O)c3)N1)OCCc1cc(Cl)sc12 (racemic) [Compound 115] | 50 to 500 | – | 99.3 | – | – |
| C[C@H]1C[C@@]2(C[C@@H](c3cn(C)c(=O)n(C)c3=O)N1)OCCc1cc(Cl)sc12 (racemic) [Compound 124] | 50 to 500 | – | 99.3 | – | – |
| C[C@H]1C[C@@]2(C[C@@H](c3cn(Cc4n[nH]c5ccccc45)nn3)N1)OC[C@@H](O)c1cc(Cl)sc12 [Compound 232] | 50 to 500 | – | 100.0 | – | – |
| Cc1cccc([C@@H]2C[C@]3(C[C@H](C)N2)OCCc2cc(Cl)sc23)n1 (racemic) [Compound 126] | 50 to 500 | – | 99.4 | – | – |
| C[C@H]1C[C@@]2(C[C@@H](c3cn(CC(C)(C)O)nn3)N1)OC[C@@H](O)c1cc(Cl)sc12 [Compound 247] | > 500 | – | 91.0 | – | – |
| Cc1ccnn1CCn1cc([C@@H]2C[C@]3(C[C@H](C)N2)OC[C@@H](O)c2cc(Cl)sc23)nn1 [Compound 274] | 50 to 500 | – | 97.0 | – | – |

| Compound | IC90 [1] [nM] | Emax [2] [%] | Multi-Tox Assay Max Activity (%) [2] [%] | IC90 (Multi-Tox Assay, APOL1 variant (G0/G1/G2) not stated in Table 46) [nM] | Multi-Tox Assay Max Activity (%) (Multi-Tox Assay, APOL1 variant not stated in Table 46) |
| --- | --- | --- | --- | --- | --- |
| C[C@H]1C[C@@]2(C[C@@H](c3ncccc3O)N1)OCCc1cc(Cl)sc12 (racemic) [Compound 172] | > 500 | – | 52.0 | – | – |
| C[C@H]1C[C@@]2(C[C@@H](c3cn(Cc4ccc(C#N)nc4)nn3)N1)OCC(F)(F)c1cc(Cl)sc12 [Compound 352] | 50 to 500 | – | – | – | – |
| Cc1nn(CCO)cc1[C@@H]1C[C@]2(C[C@H](C)N1)OCCc1cc(Cl)sc12 (racemic) [Compound 158] | > 500 | – | 90.4 | – | – |
| C[C@H]1C[C@@]2(C[C@@H](c3cn(CC4CCS(=O)(=O)C4)nn3)N1)OC[C@@H](O)c1cc(Cl)sc12 (stereo partly shown) [Compound 265] | 50 to 500 | – | – | – | – |
| C[C@H]1C[C@@]2(C[C@@H](c3c[nH]nn3)N1)OCCc1cc(Cl)sc12 (racemic) [Compound 72] | < 50 | 99.7 | – | – | – |
| CC1CC2(CC(c3cnn(C)n3)N1)OCCc1cc(Cl)sc12 (stereo not shown) [Compound 38] | < 50 | 100 | – | – | – |
| COc1cc(F)cc(Cn2cc([C@@H]3C[C@]4(C[C@H](C)N3)OC[C@@H](O)c3cc(Cl)sc34)nn2)c1 [Compound 293] | < 50 | – | 100.0 | – | – |
| C[C@H]1CC2(CC(c3cn(C)cn3)N1)OCC(O)c1cc(Cl)sc12 (single isomer, unassigned) [Compound 178] | < 50 | 99.7 | – | – | – |
| Cc1nccnc1[C@@H]1C[C@]2(C[C@H](C)N1)OCCc1cc(Cl)sc12 (racemic) [Compound 164] | > 500 | – | 91.7 | – | – |
| C[C@H]1C[C@@]2(C[C@@H](c3cn(CC4CCOC4)nn3)N1)OC[C@@H](O)c1cc(Cl)sc12 (stereo partly shown) [Compound 269] | 50 to 500 | – | – | – | – |
| CC(=O)Nc1cccc([C@@H]2C[C@]3(C[C@H](C)N2)OCCc2cc(Cl)sc23)c1 (racemic) [Compound 113] | 50 to 500 | – | 100.0 | – | – |
| Cc1nccn1CCCn1cc([C@@H]2C[C@]3(C[C@H](C)N2)OCC(F)(F)c2cc(Cl)sc23)nn1 [Compound 341] | > 500 | – | 98.0 | – | – |
| CC(C)C(=O)NCCn1cc([C@@H]2C[C@]3(C[C@H](C)N2)OC[C@@H](O)c2cc(Cl)sc23)nn1 [Compound 230] | > 500 | – | 98.0 | – | – |
| COc1ccc(Cn2cc([C@@H]3C[C@]4(C[C@H](C)N3)OC[C@@H](O)c3cc(Cl)sc34)nn2)cc1F [Compound 245] | 50 to 500 | – | – | – | – |
| Cc1cnc([C@@H]2C[C@]3(C[C@H](C)N2)OCCc2cc(Cl)sc23)o1 (racemic) [Compound 134] | 50 to 500 | – | 99.2 | – | – |
| C#C[C@@H]1C[C@]2(C[C@H](C)N1)OC[C@@H](O)c1cc(Cl)sc12 [Compound 222, (2'S,4S,6'S,7S)-2-chloro-2'-ethynyl-6'-methyl-spiro[4,5-dihydrothieno[2,3-c]pyran-7,4'-piperidine]-4-ol] | 50 to 500 | 100 | – | – | – |
| C[C@@H]1CC2(C[C@H](C)N1)OCCc1sc(C(F)(F)F)cc12 (single isomer, unassigned) [Compound 196] | 50 to 500 | 99 | – | – | – |
| COc1cccc(C2CC3(CC(C)N2)OCCc2cc(Cl)sc23)n1 (mixture of isomers) [Compound 135] | 50 to 500 | – | 98.0 | – | – |
| CNC(=O)C(C)Cn1cc([C@@H]2C[C@]3(C[C@H](C)N2)OC[C@@H](O)c2cc(Cl)sc23)nn1 (stereo partly shown) [Compound 258] | > 500 | – | 98.0 | – | – |
| C[C@H]1C[C@@]2(C[C@@H](c3cn(Cc4ccc(C#N)cc4)nn3)N1)OC[C@@H](O)c1cc(Cl)sc12 [Compound 253] | 50 to 500 | – | 100.0 | – | – |
| C[C@H]1C[C@@]2(C[C@@H](c3cccc(-c4cn[nH]c4)c3)N1)OCCc1cc(Cl)sc12 (racemic) [Compound 148] | 50 to 500 | – | 97.0 | – | – |
| C[C@H]1C[C@@]2(C[C@@H](c3cn(Cc4cccnn4)nn3)N1)OCC(F)(F)c1cc(Cl)sc12 [Compound 321] | 50 to 500 | – | – | – | – |
| Cc1ccc(Cn2cc([C@@H]3C[C@]4(C[C@H](C)N3)OC[C@@H](O)c3cc(Cl)sc34)nn2)nc1 [Compound 294] | 50 to 500 | – | 100.0 | – | – |
| CC1CC2(CC(C3CCC3)N1)OCCc1cc(Cl)sc12 (mixture of isomers) [Compound 218] | 50 to 500 | 99.3 | – | – | – |
